Entries after “also recorded” stand apart in the source; their conditions may differ. Structures can show the parent of a compound that is named as a salt. Where two headings read alike, the source gives them in different places.
Columns and labels:
[1] = target: T1, soybean lipoxygenase-1 (sLO-1) (Glycine max, UniProt P08170); type: biochemical; conditions: for effect of LO product on the endogenous substrate mixture ratio ALA:LA: up to 5 μM product addition; for effect of inhibitor on the (kcat/KM)^ALA/(kcat/KM)^LA ratio: inhibitor in excess of its IC50 value
T1 sequence (P08170 1-839): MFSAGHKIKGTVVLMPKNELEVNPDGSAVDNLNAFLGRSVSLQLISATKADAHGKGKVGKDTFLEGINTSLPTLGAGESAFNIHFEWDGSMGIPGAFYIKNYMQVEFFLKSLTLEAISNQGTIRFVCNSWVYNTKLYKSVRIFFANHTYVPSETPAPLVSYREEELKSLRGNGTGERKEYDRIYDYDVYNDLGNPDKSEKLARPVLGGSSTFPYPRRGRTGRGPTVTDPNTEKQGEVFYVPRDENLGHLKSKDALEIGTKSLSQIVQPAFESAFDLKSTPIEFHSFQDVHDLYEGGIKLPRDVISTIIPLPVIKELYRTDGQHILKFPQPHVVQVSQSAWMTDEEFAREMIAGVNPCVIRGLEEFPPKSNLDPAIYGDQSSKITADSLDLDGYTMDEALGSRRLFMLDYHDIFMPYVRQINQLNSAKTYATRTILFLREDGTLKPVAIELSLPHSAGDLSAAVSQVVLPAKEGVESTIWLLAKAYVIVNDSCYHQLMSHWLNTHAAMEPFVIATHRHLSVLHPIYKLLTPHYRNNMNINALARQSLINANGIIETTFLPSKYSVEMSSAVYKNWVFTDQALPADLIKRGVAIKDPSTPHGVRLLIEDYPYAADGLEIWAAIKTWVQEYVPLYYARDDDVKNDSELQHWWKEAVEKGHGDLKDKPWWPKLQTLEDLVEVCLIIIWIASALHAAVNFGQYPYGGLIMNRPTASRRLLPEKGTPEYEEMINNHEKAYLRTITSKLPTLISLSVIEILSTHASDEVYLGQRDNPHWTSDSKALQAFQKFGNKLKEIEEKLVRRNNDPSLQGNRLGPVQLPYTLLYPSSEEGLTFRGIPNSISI

[2] = target: T1, soybean lipoxygenase-1 (sLO-1); type: biochemical; conditions: for effect of LO product on the AA:LA ratio: up to 5 μM product
[3] = tested on: 15-hLO-1 (human reticulocyte 15-lipoxygenase); conditions: cited from earlier work
[4] = target: T1, soybean lipoxygenase-1 (sLO-1); test: IC50 assay of sLO-1 with PS, OS and OA inhibitors, LA as substrate; type: biochemical

CC/C=C\C/C=C\C/C=C\CCCCCCCC(=O)O [ALA, α-linolenic acid]
(kcat/KM)^ALA/(kcat/KM)^LA ratio (substrate specificity, no effector) ([1]; ALA:LA 1:1, 1 μM total substrate, 100 mM Borate pH 9.2, 22 °C): 0.75 ± 0.5

CCCCC[C@H](O)/C=C/C=C\CCCCCCCC(=O)O [13-HODE, 13-(S)-hydroxyoctadecadienoic acid]
effect of LO product on the AA:LA ratio [2]: no observable effect; also recorded: did not display any observable effect | effect of LO product on the endogenous substrate mixture ratio ALA:LA [1]: no effect | (kcat/KM)^AA/(kcat/KM)^LA ratio of 15-hLO-1 ([3]; 5 μM 13-HODE, increase from 1.4): 2.9

CCCCCCCC/C=C\CCCCCCCCOS(=O)(=O)O [OS, oleyl sulfate]
IC50 [4]: 1 ± 0.1 µM | AC50 [2]: 1.5 ± 0.3 µM | effect of inhibitor on the (kcat/KM)^ALA/(kcat/KM)^LA ratio [1]: none of the inhibitors, OS, OA, or PS, affected

CC/C=C\C[C@H](O)/C=C/C=C\CCCCCCCC(=O)O [13-HOTrE]
effect of LO product on the AA:LA ratio [2]: no observable effect | effect of LO product on the endogenous substrate mixture ratio ALA:LA [1]: no effect

CCCCCCCC/C=C\CCCCCCCC(=O)O [OA, oleic acid]
IC50 [4]: 11 ± 3 µM | effect of inhibitor on the AA:LA substrate ratio ([2]; competitive inhibitor, at IC50 and 5-fold IC50): no effect | effect of inhibitor on the (kcat/KM)^ALA/(kcat/KM)^LA ratio [1]: none of the inhibitors, OS, OA, or PS, affected

CCCCC/C=C\C[C@H](O)/C=C/C=C\C/C=C\CCCC(=O)O [12-HETE, 12-(S)-hydroxyeicosatetraenoic acid]
(kcat/KM)^AA/(kcat/KM)^LA ratio ([2]; addition of 12-HETE (5 μM), control 1.8 ± 0.2): 2.4 ± 0.2 | maximum (kcat/KM)^AA/(kcat/KM)^LA ratio at saturating conditions ([2]; calculated from saturation curve fit): 5.1 ± 0.3 | binding affinity to sLO-1 weaker than to 15-hLO-1 ([2]; ratio of half saturation points, sLO-1 vs 15-hLO-1): ~30 fold | effect on sLO-1 catalysis ([2]; saturating amounts at the allosteric site, both AA and LA as substrate): inhibit sLO-1 | effect of LO product on the endogenous substrate mixture ratio ALA:LA [1]: no effect | (kcat/KM)^AA/(kcat/KM)^LA ratio of 15-hLO-1 ([3]; with 12-HETE, increase from 1.8): 2.7

CCCCC/C=C\C/C=C\C/C=C\C/C=C\CCCC(=O)O [AA, arachidonic acid]
(kcat/KM)^AA/(kcat/KM)^LA ratio (substrate specificity, no effector) ([2]; AA:LA 1:1, 1 μM total substrate, 100 mM Borate pH 9.2, 22 °C): 1.8 ± 0.2

Source: publication PMC2737062 (Bioorganic & medicinal chemistry, 2009)
